These results are taken from BindingDB's records for doi:10.1016/j.ejmech.2014.09.084 (University of Florence, 2014).

Structures are written as SMILES.

Data set [1] is described as follows: Modulatory activity at P-gp assessed as doxorubicin IC50 in human K562 cells at 3 uM after 72 hrs by MTT assay (Rvb doxorubicin alone IC50 = 0.023 +/- 0.004 uM).
A short description of data set [2]: Modulatory activity at P-gp assessed as doxorubicin IC50 in human K562 cells at 1 uM after 72 hrs by MTT assay (Rvb doxorubicin alone IC50 = 0.023 +/- 0.004 uM).
Data set [3] in a line: Modulatory activity at P-gp assessed as doxorubicin IC50 in human K562/DOX cells at 3 uM after 72 hrs by MTT assay (Rvb doxorubicin alone IC50 = 2.00 +/- 0.24 uM).
Data set [4] in a line: Modulatory activity at P-gp assessed as doxorubicin IC50 in human K562 cells at 0.1 uM after 72 hrs by MTT assay (Rvb doxorubicin alone IC50 = 0.023 +/- 0.004 uM). (Tetrazolium dyes change colour on reduction, which living cells bring about.)
The nature of data set [5]: Modulatory activity at P-gp assessed as doxorubicin IC50 in human K562/DOX cells at 1 uM after 72 hrs by MTT assay (Rvb doxorubicin alone IC50 = 2.00 +/- 0.24 uM).
Data set [6] in a line: Modulatory activity at P-gp assessed as doxorubicin IC50 in human K562/DOX cells at 0.1 uM after 72 hrs by MTT assay (Rvb doxorubicin alone IC50 = 2.00 +/- 0.24 uM).

As usually defined, the IC50 is the concentration needed to halve the response being measured. As to `COc1cc(/C=C/C(=O)OCCCCN(C)CCCCOC(=O)c2c3ccccc3cc3ccccc23)cc(OC)c1OC`, the IC50 in data set [1] came out at 19 nM; in data set [2] it was 41 nM; in data set [3], 63 nM; in data set [4], 22 nM; in data set [5] it was 230 nM; in data set [6], 830 nM.

With `COc1cc(/C=C/C(=O)OCCCN(C)CCCCCOC(=O)c2c3ccccc3cc3ccccc23)cc(OC)c1OC`, the IC50 came out at 51 nM in data set [1]; 12 nM in data set [2]; 170 nM in data set [3]; 11 nM in data set [4]; 320 nM in data set [5]; 620 nM in data set [6].

In the case of `COc1cc(/C=C/C(=O)OCCCCCN(C)CCCOC(=O)c2c3ccccc3cc3ccccc23)cc(OC)c1OC`, the half-maximal inhibitory concentration (IC50) in data set [1] stood at 18 nM; in data set [3], 35 nM; in data set [4], 30 nM; in data set [5], 60 nM; in data set [6], 300 nM.
